Laboratory results taken from US20050215646A1, “Methods for treating multiple sclerosis and pharmaceutical compositions therefor” (Renovis, Inc., priority 2004, published 2005).

Experiments:
Format in all cases: cell-based
CXCR1 = target: T1, CXCR1 (Homo sapiens, UniProt P25024); assay: Migration of CHO-K1 cells expressing CXCR1; details: CHO-K1 cells expressing CXCR1, 2 hours; degree similar to IL-8; FIG. 3
T1 construct: cDNA fragments encompassing chemokine receptor coding regions; expressed in transfected cells; host or cells: CHO-K1 (ATCC CCL-61), transient transfection
T1 sequence (P25024 1-350): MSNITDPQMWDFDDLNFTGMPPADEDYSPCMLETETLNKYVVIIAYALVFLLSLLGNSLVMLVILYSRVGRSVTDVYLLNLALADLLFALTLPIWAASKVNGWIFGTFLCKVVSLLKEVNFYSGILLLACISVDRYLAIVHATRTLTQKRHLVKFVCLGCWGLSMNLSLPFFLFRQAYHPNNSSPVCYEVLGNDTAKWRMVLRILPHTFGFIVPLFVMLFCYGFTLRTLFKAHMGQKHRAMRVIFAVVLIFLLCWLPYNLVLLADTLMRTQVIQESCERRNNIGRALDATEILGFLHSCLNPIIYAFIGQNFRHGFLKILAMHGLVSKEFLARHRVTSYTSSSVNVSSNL
Experimental: (§1) CHO-K1 cells were obtained from American Type Culture Collection (CCL-61) and cultured in Ham's F12 media supplemented with 10% heat inactivated FBS and 100 μg/ml penicillin/streptomycin. cDNA fragments encompassing chemokine receptor coding regions were obtained from cDNAs synthesized from HL-60 cells and/or human peripheral blood mononuclear cells by the polymerase chain reaction. Expression constructs of chemokine receptors were generated by cloning PCR fragments into expression vector pEF6/V5-TOPO (K9610-20, Invitrogen). Transient transfections were carried out with Fugene 6 transfection reagent (1814443, Roche Applied Science) according to the manufacturer's instructions.
(§2) The CHO-chemokine receptor cells were used in migration assays 36 hours following transfection. In vitro migration assays were performed using a Neuroprobe Blindwell migration apparatus (AA12, Neuro Probe, Inc./16008 Industrial Drive, Gaithersburg, Md. 20877) according to the manufacturer's instructions with slight modifications. […]
(§3) Following the migration assays, migrated cells that had adhered to the underside of the filter were quantitated according to the manufacturer's instructions. […] Stained filtered were mounted onto microscope slides and migrated cells in each well were manually counted under 40× magnification.

FMLP receptor = target: T2, FMLP receptor (Homo sapiens, UniProt P21462); assay: Migration of CHO-K1 cells expressing the FMLP receptor; details: 2 hours, FIG. 4
T2 construct: cDNA fragments encompassing chemokine receptor coding regions; expressed in transfected cells; host or cells: CHO-K1 (ATCC CCL-61), transient transfection
T2 sequence (P21462 1-350): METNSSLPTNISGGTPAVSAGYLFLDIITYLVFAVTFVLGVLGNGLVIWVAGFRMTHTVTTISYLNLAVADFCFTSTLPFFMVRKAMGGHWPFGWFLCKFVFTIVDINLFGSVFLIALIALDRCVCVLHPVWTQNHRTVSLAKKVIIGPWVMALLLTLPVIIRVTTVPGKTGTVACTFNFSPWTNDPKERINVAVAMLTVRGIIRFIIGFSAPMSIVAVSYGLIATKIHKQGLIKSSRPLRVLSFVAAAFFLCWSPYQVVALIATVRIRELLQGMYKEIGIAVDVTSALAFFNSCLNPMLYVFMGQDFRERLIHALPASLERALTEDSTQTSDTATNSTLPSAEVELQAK
Experimental: as §1, §2, §3

CXCR3 = target: T3, CXCR3 (Homo sapiens, UniProt P49682); assay: Migration of CHO-K1 cells expressing CXCR3; parameters: cDNA fragments encompassing chemokine receptor coding regions; expressed in transfected cells; host or cells: CHO-K1 (ATCC CCL-61), transient transfection; details: CHO-K1 cells expressing CXCR3, 2 hours; FIG. 3
T3 sequence (P49682 1-368): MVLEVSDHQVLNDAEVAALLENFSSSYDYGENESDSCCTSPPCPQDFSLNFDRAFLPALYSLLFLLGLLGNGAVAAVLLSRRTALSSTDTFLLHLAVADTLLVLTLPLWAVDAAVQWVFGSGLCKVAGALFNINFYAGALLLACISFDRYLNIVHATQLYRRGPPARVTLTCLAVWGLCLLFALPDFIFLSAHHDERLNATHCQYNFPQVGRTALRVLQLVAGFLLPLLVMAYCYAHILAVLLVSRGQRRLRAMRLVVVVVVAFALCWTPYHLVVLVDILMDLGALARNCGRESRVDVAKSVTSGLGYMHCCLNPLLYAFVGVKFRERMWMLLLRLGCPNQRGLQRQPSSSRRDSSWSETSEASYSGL
Experimental: as §1, §2, §3

## CC(C)(C)c1cc(/C=[N+](\[O-])C(C)(C)C)cc(C(C)(C)C)c1O [Compound 1, α-(4-hydroxy-3,5-di-tert-butylphenyl)-N-tert-butylnitrone]
CXCR1
  induction of cell migration: induced migration
FMLP receptor
  induction of cell migration: did not induce migration
CXCR3
  induction of cell migration: induced migration
